Like-named read-outs stand apart in the source and are kept apart here.
Tests used:
[1] = target: wild-type Drosophila melanogaster EcR (DmEcR; GAL4-EcR DEF with VP16-RXR-USP chimera) (Drosophila melanogaster, UniProt P34021); experiment: Two-hybrid gene switch assay, luciferase reporter, wild-type DmEcR, mouse NIH3T3 cells; type: cell-based
[2] = target: T1, AmaEcR (GAL4-EcR DEF with VP16-RXR-USP chimera) (Amblyomma americanum, UniProt O44338); experiment: Two-hybrid gene switch assay, luciferase reporter, AmaEcR, mouse NIH3T3 cells
T1 sequence (O44338 255-570): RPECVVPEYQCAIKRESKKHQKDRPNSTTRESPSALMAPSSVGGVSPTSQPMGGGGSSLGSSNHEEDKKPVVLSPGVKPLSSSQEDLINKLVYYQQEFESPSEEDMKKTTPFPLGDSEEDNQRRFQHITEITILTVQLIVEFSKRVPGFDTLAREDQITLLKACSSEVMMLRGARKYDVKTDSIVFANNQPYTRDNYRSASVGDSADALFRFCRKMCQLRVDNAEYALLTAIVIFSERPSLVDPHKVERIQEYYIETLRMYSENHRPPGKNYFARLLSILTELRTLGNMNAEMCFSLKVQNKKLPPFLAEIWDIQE
T1 sequence (P28702 1-533 partner): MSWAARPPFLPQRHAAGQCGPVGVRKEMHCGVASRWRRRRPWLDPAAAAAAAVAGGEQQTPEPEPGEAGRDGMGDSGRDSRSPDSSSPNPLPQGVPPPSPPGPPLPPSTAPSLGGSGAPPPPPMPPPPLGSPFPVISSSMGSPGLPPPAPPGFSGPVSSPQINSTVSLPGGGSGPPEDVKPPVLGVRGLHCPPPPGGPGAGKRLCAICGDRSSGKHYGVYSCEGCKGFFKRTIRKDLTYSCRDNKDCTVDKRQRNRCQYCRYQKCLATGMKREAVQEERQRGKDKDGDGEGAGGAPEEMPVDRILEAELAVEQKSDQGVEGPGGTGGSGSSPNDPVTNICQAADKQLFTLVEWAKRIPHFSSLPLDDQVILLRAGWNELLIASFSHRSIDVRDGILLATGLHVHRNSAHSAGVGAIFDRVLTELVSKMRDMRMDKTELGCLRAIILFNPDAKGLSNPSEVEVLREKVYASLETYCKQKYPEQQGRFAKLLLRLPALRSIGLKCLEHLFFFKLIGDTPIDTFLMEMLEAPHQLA

[3] = target: wild-type Aedes aegypti EcR (AaEcR; GAL4-EcR DEF with VP16-RXR-USP chimera) (Aedes aegypti, UniProt P49880); experiment: Two-hybrid gene switch assay, luciferase reporter, wild-type AaEcR, mouse NIH3T3 cells; type: cell-based
[4] = target: T2, wild-type CfEcR (GAL4-CfEcR-DEF with VP16-RXR-USP chimera) (Choristoneura fumiferana, UniProt O77255); experiment: Two-hybrid gene switch assay, luciferase reporter, wild-type CfEcR, mouse NIH3T3 cells
T2 sequence (O77255 219-541): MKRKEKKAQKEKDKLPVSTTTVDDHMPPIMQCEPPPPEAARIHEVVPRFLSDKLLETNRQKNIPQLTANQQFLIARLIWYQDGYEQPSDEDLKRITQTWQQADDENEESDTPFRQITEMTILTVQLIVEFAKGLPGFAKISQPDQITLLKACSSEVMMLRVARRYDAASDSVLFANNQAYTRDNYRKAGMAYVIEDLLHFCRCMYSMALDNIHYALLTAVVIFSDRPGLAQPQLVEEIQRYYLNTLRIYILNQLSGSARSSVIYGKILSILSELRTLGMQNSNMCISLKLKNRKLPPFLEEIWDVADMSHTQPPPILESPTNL
T2 sequence (P28702 1-533 partner): T1 sequence (P28702 1-533 partner)

[5] = target: T3, TmEcR (GAL4-EcR DEF with VP16-RXR partner) (Tenebrio molitor, UniProt O02035); experiment: Two-hybrid gene switch assay, luciferase reporter, TmEcR, mouse NIH3T3 cells
T3 sequence (O02035 194-491): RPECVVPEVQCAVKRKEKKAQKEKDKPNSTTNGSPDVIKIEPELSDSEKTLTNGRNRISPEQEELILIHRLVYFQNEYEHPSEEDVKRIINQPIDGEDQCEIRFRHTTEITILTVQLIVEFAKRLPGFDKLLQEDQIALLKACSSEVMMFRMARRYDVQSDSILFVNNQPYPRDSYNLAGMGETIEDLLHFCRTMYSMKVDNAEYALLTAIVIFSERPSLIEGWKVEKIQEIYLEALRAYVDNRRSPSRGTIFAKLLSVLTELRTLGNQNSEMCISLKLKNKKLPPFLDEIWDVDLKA
T3 sequence (P28704 1-520 partner): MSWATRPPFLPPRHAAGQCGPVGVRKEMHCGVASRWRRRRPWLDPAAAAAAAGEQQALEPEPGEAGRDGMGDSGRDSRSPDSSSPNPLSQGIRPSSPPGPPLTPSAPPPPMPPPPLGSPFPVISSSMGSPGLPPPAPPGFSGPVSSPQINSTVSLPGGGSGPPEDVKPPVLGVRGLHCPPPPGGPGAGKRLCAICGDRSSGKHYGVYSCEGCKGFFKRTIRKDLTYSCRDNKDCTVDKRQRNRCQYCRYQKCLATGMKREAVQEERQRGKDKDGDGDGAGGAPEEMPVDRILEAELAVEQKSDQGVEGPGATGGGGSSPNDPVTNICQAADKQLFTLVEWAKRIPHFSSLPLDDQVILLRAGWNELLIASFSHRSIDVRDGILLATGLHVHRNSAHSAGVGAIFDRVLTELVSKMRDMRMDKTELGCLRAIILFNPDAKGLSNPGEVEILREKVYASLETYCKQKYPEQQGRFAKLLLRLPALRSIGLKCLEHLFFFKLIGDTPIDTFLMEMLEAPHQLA

[6] = target: T4, BaEcR (GAL4-EcR DEF with VP16-RXR-USP chimera) (Bemisia tabaci, UniProt A0A6M3RDR8); experiment: Two-hybrid gene switch assay, luciferase reporter, BaEcR, mouse NIH3T3 cells; conditions: EC50, FIG. 14A/14B, GAL4-EcR(DEF) with VP16-RXR-USP chimera
T4 sequence (A0A6M3RDR8 115-530): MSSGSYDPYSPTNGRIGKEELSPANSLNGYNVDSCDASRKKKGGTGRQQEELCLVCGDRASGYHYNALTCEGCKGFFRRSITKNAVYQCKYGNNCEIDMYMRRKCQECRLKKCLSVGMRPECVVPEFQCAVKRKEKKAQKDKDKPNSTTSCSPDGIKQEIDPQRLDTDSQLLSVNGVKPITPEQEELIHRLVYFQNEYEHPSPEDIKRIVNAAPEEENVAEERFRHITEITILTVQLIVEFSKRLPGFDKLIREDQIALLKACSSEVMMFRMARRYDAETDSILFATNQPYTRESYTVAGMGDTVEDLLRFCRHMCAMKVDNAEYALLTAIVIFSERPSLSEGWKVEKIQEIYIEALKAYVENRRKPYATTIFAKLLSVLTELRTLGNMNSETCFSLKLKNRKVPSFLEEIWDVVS
T4 sequence (P28702 1-533 partner): T1 sequence (P28702 1-533 partner)

[7] = EC50, FIG. 14A/14B, GAL4-EcR(DEF) with VP16-RXR-USP chimera
[8] = FIG. 14A/14B, GAL4-EcR(DEF) with VP16-RXR-USP chimera, read-out: EC50
[9] = EC50, FIG. 14A/14B, GAL4-EcR(DEF)
[10] = EC50, FIG. 16, GAL4-EcR (DEF) / VP16-RXR-USP chimera

Chain of wild-type Drosophila melanogaster EcR (DmEcR; GAL4-EcR DEF with VP16-RXR-USP chimera) (P34021 with tags, fused parts or gaps limits assumed): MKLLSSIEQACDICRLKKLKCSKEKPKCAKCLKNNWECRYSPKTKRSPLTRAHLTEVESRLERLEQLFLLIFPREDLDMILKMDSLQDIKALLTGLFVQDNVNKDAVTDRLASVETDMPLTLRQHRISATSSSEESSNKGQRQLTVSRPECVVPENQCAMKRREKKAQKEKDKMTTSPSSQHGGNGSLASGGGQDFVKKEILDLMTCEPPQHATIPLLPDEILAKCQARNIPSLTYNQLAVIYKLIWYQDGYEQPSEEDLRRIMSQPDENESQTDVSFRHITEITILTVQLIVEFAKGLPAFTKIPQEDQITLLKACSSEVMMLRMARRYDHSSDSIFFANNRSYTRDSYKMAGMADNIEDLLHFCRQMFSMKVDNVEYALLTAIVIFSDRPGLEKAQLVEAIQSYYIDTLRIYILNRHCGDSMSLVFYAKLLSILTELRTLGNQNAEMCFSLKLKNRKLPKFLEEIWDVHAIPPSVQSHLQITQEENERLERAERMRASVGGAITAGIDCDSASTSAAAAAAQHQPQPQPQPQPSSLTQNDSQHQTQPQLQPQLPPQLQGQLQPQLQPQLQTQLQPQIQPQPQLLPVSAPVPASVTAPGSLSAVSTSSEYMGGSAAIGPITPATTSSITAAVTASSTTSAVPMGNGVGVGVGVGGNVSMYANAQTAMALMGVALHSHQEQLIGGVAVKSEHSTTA
Chain of wild-type Aedes aegypti EcR (AaEcR; GAL4-EcR DEF with VP16-RXR-USP chimera) (P49880 with tags, fused parts or gaps limits assumed, change not shown): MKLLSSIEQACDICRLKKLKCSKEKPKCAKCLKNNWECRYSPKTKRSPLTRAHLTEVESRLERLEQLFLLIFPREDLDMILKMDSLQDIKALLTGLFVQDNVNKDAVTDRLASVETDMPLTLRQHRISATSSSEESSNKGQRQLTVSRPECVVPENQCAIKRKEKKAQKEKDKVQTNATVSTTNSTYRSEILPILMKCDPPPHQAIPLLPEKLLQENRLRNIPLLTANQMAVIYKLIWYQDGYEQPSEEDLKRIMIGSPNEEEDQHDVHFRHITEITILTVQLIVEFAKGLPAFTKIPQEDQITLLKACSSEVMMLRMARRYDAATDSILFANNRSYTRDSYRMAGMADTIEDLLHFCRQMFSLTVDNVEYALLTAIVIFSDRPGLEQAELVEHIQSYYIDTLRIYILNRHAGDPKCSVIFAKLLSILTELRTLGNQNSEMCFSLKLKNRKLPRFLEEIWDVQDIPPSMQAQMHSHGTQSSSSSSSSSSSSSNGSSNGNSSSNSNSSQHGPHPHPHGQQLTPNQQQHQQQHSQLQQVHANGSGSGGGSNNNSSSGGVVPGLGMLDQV

CC(C(O)CCC(C)(C)O)C1CCC2(O)C3=CC(=O)C4CC(O)CCC4(C)C3CCC12C (stereo not shown) [Compound 2-deoxyecdysone]
EC50 [1, 7]: > 33 µM
EC50 [2, 7]: ~1 µM
EC50 [3, 8]: ~10 µM
EC50 [4]: > 33 µM
EC50 [5, 9]: > 33 µM
EC50 [6]: > 33 µM

CC(C)(O)C(CCC(C)(O)C1CCC2(O)C3=CC(=O)C4CC(O)C(O)CC4(C)C3CCC12C)OC(=O)c1ccc[nH]1 (stereo not shown) [canescensterone]
EC50 [1, 7]: ~0.5 µM
EC50 [2, 7]: ~0.3 µM
EC50 [3, 8]: ~0.2 µM
EC50 [4]: > 10 µM
EC50 [5, 9]: ~0.33 µM
EC50 [6]: ~0.2 µM

CC(C)(O)CC[C@@H](O)[C@](C)(O)[C@H]1CC[C@@]2(O)C3=CC(=O)[C@@H]4C[C@H]5OC(C)(C)O[C@H]5C[C@]4(C)[C@H]3CC[C@]12C [20-hydroxyecdysone-2,3-acetonide]
EC50 [1, 7]: > 33 µM
EC50 [2, 7]: ~7 µM
EC50 [3, 8]: ~15 µM
EC50 [4]: > 33 µM
EC50 [5, 9]: ~10 µM
EC50 [6]: ~15 µM

CC(C)(O)CC[C@@H](O)[C@](C)(O)[C@H]1CC[C@@]2(O)C3=CC(=O)[C@]4(O)C[C@@H](O)[C@@H](O)C[C@]4(C)[C@H]3CC[C@]12C [polypodine B]
EC50 [1, 7]: ~2 µM
EC50 [1, 10]: 2.54 µM
EC50 [2, 7]: ~3.3 µM
EC50 [2, 10]: ~0.3 µM
EC50 [3, 7]: 0.173 µM
EC50 [3, 10]: 0.05 µM
EC50 [4]: ~20 µM
EC50 [5, 9]: ~10 µM
EC50 ([5]; EC50, FIG. 16, GAL4-EcR (DEF)): ~3 µM
EC50 [6]: ~3.3 µM

CC(CC(O)C(C)(O)C1CCC2(O)C3=CC(=O)C4CC(O)C(O)CC4(C)C3CCC12C)C(C)(C)O (stereo not shown) [makisterone A]
EC50 [1, 7]: ~20 µM
EC50 [2, 7]: 1.4 µM
EC50 [3, 8]: 3.33 µM
EC50 [4]: > 33 µM
EC50 [5, 9]: ~20 µM
EC50 [6]: ~15 µM

CC(C)(O)CCC(=O)[C@](C)(O)[C@H]1CC[C@@]2(O)C3=CC(=O)[C@@H]4C[C@@H](O)[C@@H](O)C[C@]4(C)[C@H]3CC[C@]12C [Compound 22-dehydro-20-hydroxyecdysone]
EC50 [1, 7]: ~20 µM
EC50 [2, 7]: ~7 µM
EC50 [3, 8]: ~2 µM
EC50 [4]: > 33 µM
EC50 [5, 9]: ~15 µM
EC50 [6]: ~12 µM

CC(C)=CC[C@@H](O)[C@](C)(O)[C@H]1CC[C@@]2(O)C3=CC(=O)[C@@H]4C[C@@H](O)[C@@H](O)C[C@]4(C)[C@H]3CC[C@]12C [stachysterone C]
EC50 [1, 7]: 0.385 µM
EC50 [2, 7]: ~0.1 µM
EC50 [3, 7]: 0.044 µM
EC50 [4]: ~10 µM
EC50 [5, 9]: 1.47 µM
EC50 [6]: 0.658 µM

CC(C)(O)CC[C@@H](O)[C@](C)(O)[C@H]1CC[C@@]2(O)C3=CC(=O)[C@@H]4C[C@@H](O)[C@@H](O)C[C@]4(C)[C@H]3[C@H](O)C[C@]12C [turkesterone]
EC50 [1, 7]: ~15 µM
EC50 [2, 7]: ~10 µM
EC50 [3, 7]: 3.37 µM
EC50 [4]: > 33 µM
EC50 [5, 9]: > 33 µM
EC50 [6]: ~20 µM

C[C@@H]1C(=O)O[C@H](C)[C@H]1C[C@@H](O)[C@](C)(O)[C@H]1CC[C@@]2(O)C3=CC(=O)[C@@H]4C[C@@H](O)[C@@H](O)C[C@]4(C)[C@H]3CC[C@]12C [cyasterone]
EC50 [1, 7]: > 33 µM
EC50 [2, 7]: ~0.3 µM
EC50 [3, 8]: 3 µM
EC50 [4]: ~1 µM
EC50 [5, 9]: > 33 µM
EC50 [6]: ~10 µM

CCC(=O)OC1CC2(C)C(C(C)(O)C(O)CCC(C)(C)O)CCC2(O)C2=CC(=O)C3CC(O)C(O)CC3(C)C21 (stereo not shown) [turkesterone-11 a -propionate]
EC50 [1, 7]: > 33 µM
EC50 [2, 7]: ~10 µM
EC50 [3, 7]: ~15 µM
EC50 [4]: > 33 µM
EC50 [5, 9]: > 33 µM
EC50 [6]: > 33 µM

Reference: patent US8536354B2, “Steroidal ligands and their use in gene switch modulation” (Intrexon Corporation, priority 2008, dated 2013)
